How the values were obtained:
A delta nerve fibres = assay: isolated nerve fibre model (electrophysiology of A delta fibres)
Protocol: In a first step, an isolated nerve fibre model was used and the effect of a 25% dilution (nutrient solution) of LGP10-16 on the different electrophysiological variables of the A delta nerve fibres was evaluated. The stimulated fibres from the A delta type correspond to nociceptive sensory fibres. 250 μl of LGP10-16 and 750 μl of nutrient solution were used in this test.

[1] = tested on: sciatic nerve ligation or chronic constriction injury (CCI) model; assay: rodent pincher test (mechanical hyperalgesia), CCI model, subcutaneous injection; type: in vivo, rat; conditions: s.c. once a day; 10%, 25% and 100% LGP10-16
Protocol: (§1) Male Wistar rats with a body weight between 250 and 300 g were kept in standard laboratory conditions (12 h light/dark cycles, temperature 21° C.). Four groups were formed and treated once a day with a composition comprising an active ingredient: • Group 1 was administered 10% of LGP10-16. • Group 2 was administered 25% of LGP10-16. • Group 3 was administered 100% of LGP10-16. • A control group 4 was administered saline solution. Each group consisted of 15 rats.
(§2) The sciatic nerve ligation or chronic constriction injury (CCI) model for as described by Bennett and Xie was used. The sciatic nerve ligation model generates a peripheral nerve injury that causes the appearance of mechanical and thermal hyperalgesia, mechanical allodynia and sometimes signs of spontaneous pain can be observed, by the spontaneous 5 elevation of the paw. All these symptoms appear one week after nerve ligation and can last more than two months. The added value of the model is that each animal can be its own control, since the contralateral paw, not being injured, reflects normal values.
Mechanical hyperalgesia was tested in the rodent pincher test. The rodent pincher algometer allows calibrated forceps to induce quantifiable mechanical stimulation in the animal. The pressure is applied in the “inter-digital” region. […]

mouse vas deferens = mouse vas deferens preparation, inhibition of contractile activity
Protocol: In a second step, the effect of different concentrations of LGP10-16 on preparations of mouse vas deferens and guinea-pig ileum LMMP was studied.
After adding a concentration of the drug to the organ bath, it is left for 9 minutes to test its effect, after which the preparation is washed. At the end of the first concentration-response curve (left bars), it is left for 90 mins and the second curve is created (right bars).

[2] = tested on: sciatic nerve ligation or chronic constriction injury (CCI) model; assay: von Frey filament test (mechanical allodynia), CCI model, subcutaneous injection; type: in vivo, rat
Protocol: as §1
as §2, with “values. […]” for “values.”

[3] = tested on: sciatic nerve ligation or chronic constriction injury (CCI) model; assay: conditioned place preference (CPP) test, spontaneous pain, CCI model; type: in vivo, rat; conditions: LGP10-16 25%; day 14 and day 21
From the text: The conditioned place preference (CPP) test assesses emotional responses; it is based on the evaluation of an associated learning behaviour in response to a new aversive environment. The CPP apparatus (70×30×30 cm) is divided into 3 compartments: two test compartments of identical dimensions and a third one considered as a neutral zone, which is narrower. The two test compartments have different visual and tactile characteristics (colour and texture of the walls and floor), so that the animal can differentiate them well and can be isolated by movable doors, so that communication between the three compartments can be allowed or blocked. On the pre-conditioning day, the animal was allowed to roam freely in the three compartments for 30 min, and the time spent in each compartment was measured ([…] that spend more than 60% in one compartment were excluded).
On conditioning days, animals were administered the drug and confined for 15 min in one of the test compartments (always in the same compartment) in order to associate the drug administration to that area. This conditioning procedure was repeated for each administration of the drug. […] The CPP value is expressed as the difference between the […]. […]

guinea-pig ileum LMMP = guinea-pig ileum LMMP preparation, inhibition of contractile activity
From the text: In a second step, the effect of different concentrations of LGP10-16 on preparations of mouse vas deferens and guinea-pig ileum LMMP was studied. […] In the case of this preparation, after washing, the curve has the same appearance, and the LGP10-16 activity is the same in both curves. To further investigate these differences, the battery of guinea-pig ileum experiments was repeated, this time without washing between the two curves, to see if the effect changed in any way. […] This is a clear synergic effect, as a result of the continued presence of LGP10-16 in the bath.

Male Wistar rats = assay: healing and local tolerability after subcutaneous injection in CCI rats; type: in vivo, rat
Protocol: as §1

[4] = maximum concentration 25%, second curve

## FCOC(C(F)(F)F)C(F)(F)F [LGP10-16, Sevoflurane]
A delta nerve fibres; 25% dilution
  reversibility of the effect: reversible
A delta nerve fibres; 25% dilution in nutrient solution, increasing pressure stimulus
  effect on nerve fibre firing capacity: inhibition of the nerve fibre firing capacity
A delta nerve fibres; 25% dilution, maintained after washing the fibre
  duration of the effect after a single application: up to 90 minutes
A delta nerve fibres; 25% solution
  effect level reached with a 25% solution: maximum effect was reached
[1]
  antihyperalgesic effect (rodent pincher): dose and time-dependent
Mouse vas deferens; 25%, washed after first curve
  recovery of contractile capacity after washing after the first curve: around 75%
Mouse vas deferens; Mus musculus, 25%, washed after second curve, read-out: contractile activity after washing after the second curve, of maximum response
  Emax: 50%
Mouse vas deferens; after changing the nutrient solution
  persistence of the effect after washing: maintained even 90 minutes after washing the preparation
Mouse vas deferens; concentrations from 1% to 25% added to the bath, 9 minutes
  inhibition of the contractile response: concentration-dependent inhibition
Mouse vas deferens; maximum concentration 25%
  inhibition at the end of the first curve: 55%
Mouse vas deferens; [4]
  inhibition at the end of the second curve: 85%
[2]; from the first run at day 7, all doses (10%, 25%, 100%)
  difference with respect to the control (von Frey): statistically significant differences
[2]; s.c. once a day, 10%, 25% and 100% LGP10-16
  antiallodynic effect (von Frey): dose- and time-dependent antiallodynic effect
[3]
  time spent in the compartment associated with drug administration (CPP): spent more time in the room associated with drug administration
guinea-pig ileum LMMP; 1% to 25%, without washing, more inhibitory at intermediate doses
  effect when the preparation was not washed between the two curves: somewhat greater
guinea-pig ileum LMMP; 25%, washed after first curve
  recovery of contractile capacity after washing after the first curve: 100%
guinea-pig ileum LMMP; 25%, washed after second curve
  recovery of function after washing after the second curve: 100%
guinea-pig ileum LMMP; concentration of 10% and 25%
  inhibition of functional activity: complete (and reversible) inhibition
guinea-pig ileum LMMP; increasing concentrations 1% to 25%, maximum 25%
  inhibition at the end of the first curve: 100%
guinea-pig ileum LMMP; [4]
  inhibition at the end of the second curve: 100%
Male Wistar rats; concentrations of 10% and 25%, s.c.
  effect on healing: not negatively affected
Male Wistar rats; group 3, 100% LGP10-16, s.c.
  local adverse findings: skin irritation and blistering
Male Wistar rats; summary statement
  side effects in animal models: no relevant side effects
